{
  "source": "patent US10676471B2",
  "about": "“Cycloalkyl-linked diheterocycle derivatives” (Pfizer Inc., priority 2014, dated 2020)",
  "data": [
    {"tested_on": "BT20 Cell", "assay": "Cancer Cell Lysate Total L-Glutamate Assay", "format": "cell-based", "settings": "Homo sapiens, BT-20, 2 h, total L-glutamate in cell lysate, BT20 cells, 2 hour incubation with test compound", "summary_of_the_method": "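BT20 and other cancer lines at ~80% confluence were given fresh L-glutamine-containing medium, then treated with serially diluted compound (0.5% DMSO) for 2 hours at 37° C. Washed cells were lysed by freeze-thaw and sonication. Lysate glutamate was measured via glutamate oxidase/HRP/50 μM Amplex Red fluorescence (ex 530-560, em 585 nm); IC50 by four-parameter logistic fit.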", "units": {"IC50": "nM"}, "values": [
      {"smiles": "CC(=O)Nc1nnc([C@@H]2CC[C@H](Cc3nnc(NC(=O)Cc4ccc(C)nc4)s3)C2)s1", "note": "(single isomer, unassigned) [Example 54, N-[5-({(cis)-3-[5-(acetylamino)-1,3,4-thiadiazol-2-yl]cyclopentyl}methyl)-1,3,4-thiadiazol-2-yl]-2-(6-methylpyridin-3-yl)acetamide]", "IC50": 1280},
      {"smiles": "Cn1ccc(Nc2nnc(C3CCC(Cc4nnc(NC(=O)Cc5ccccn5)s4)C3)s2)n1", "note": "(racemic) [Example 88, (rac)-N-(5-{[(cis)-3-{5-[(1-methyl-1H-pyrazol-3-yl)amino]-1,3,4-thiadiazol-2-yl}cyclopentyl]methyl}-1,3,4-thiadiazol-2-yl)-2-(pyridin-2-yl)acetamide]", "IC50": 13},
      {"smiles": "Cn1ccc(CC(=O)Nc2nnc(C3CC4(C3)CC(c3nnc(NC(=O)Cc5ccn(C)n5)s3)C4)s2)n1", "note": "(racemic) [Example 96, (rac)-N,N-(spiro[3.3]heptane-2,6-diyldi-1,3,4-thiadiazole-5,2-diyl)bis[2-(1-methyl-1H-pyrazol-3-yl)acetamide]]", "IC50": 0.3},
      {"smiles": "CC(=O)Nc1nnc(C[C@H]2CC[C@@H](c3nnc(NC(=O)Cc4ccccc4)s3)C2)s1", "note": "(single isomer, unassigned) [Example 45, N-{5-[(cis)-3-{[5-(acetylamino)-1,3,4-thiadiazol-2-yl]methyl}cyclopentyl]-1,3,4-thiadiazol-2-yl}-2-phenylacetamide]", "IC50": 295},
      {"smiles": "O=C(Cc1ccccc1)Nc1ccc(CC2CCC(c3nnc(NC(=O)Cc4ccccn4)s3)C2)nn1", "note": "(racemic) [Example 1, 2-phenyl-N-(6-{[(cis)-3-{5-[(pyridine-2-ylacetyl)amino]-1,3,4-thiadiazol-2-yl}cyclopentyl]methyl}pyridazin-3-yl)acetamide]", "IC50": 0.7},
      {"smiles": "C[C@H](C(=O)Nc1nnc(C[C@@H]2CC[C@H](c3nnc(NC(=O)[C@H](C)c4cccnc4)s3)C2)s1)c1cccnc1", "note": "(single isomer, unassigned) [Example 38, 2-(pyridin-3-yl)-N-(5-{[(cis)-3-(5-{[2-(pyridin-3-yl)propanoyl]amino}-1,3,4-thiadiazol-2-yl)cyclopentyl]methyl}-1,3,4-thiadiazol-2-yl)propanamide]", "IC50": 136},
      {"smiles": "O=C(Cc1ccccn1)Nc1nnc([C@@H]2CC[C@H](Cc3nnc(NC(=O)c4ccccc4F)s3)C2)s1", "note": "(racemic) [Example 144, (rac)-2-fluoro-N-(5-{[(cis)-3-{5-[(pyridin-2-ylacetyl)amino]-1,3,4-thiadiazol-2-yl}cyclopentyl]methyl}-1,3,4-thiadiazol-2-yl)benzamide]", "IC50": 0.7},
      {"smiles": "O=C(Cc1ccccn1)Nc1nnc(CC2CCC(c3nnc(Nc4cnccn4)s3)C2)s1", "note": "(racemic) [Example 87, (rac)-N-[5-({(cis)-3-[5-(pyrazin-2-ylamino)-1,3,4-thiadiazol-2-yl]cyclopentyl}methyl)-1,3,4-thiadiazol-2-yl]-2-(pyridin-2-yl)acetamide]", "IC50": 7.5},
      {"smiles": "O=C(Cc1ccccc1)Nc1ccc(C[C@@H]2CC[C@H](c3nnc(NC(=O)Cc4ccccn4)s3)C2)nn1", "note": "[Example 80, 2-phenyl-N-(6-{[(1R,3S)-3-{5-[(pyridin-2-ylacetyl)amino]-1,3,4-thiadiazol-2-yl}cyclopentyl]methyl}pyridazin-3-yl)acetamide]", "IC50": 0.1},
      {"smiles": "O=C(Cc1ccccn1)Nc1nnc(CC2CCC(c3nnc(Nc4ncccn4)s3)C2)s1", "note": "(racemic) [Example 83, (rac)-2-(pyridin-2-yl)-N-[5-({(cis)-3-[5-(pyrimidin-2-ylamino)-1,3,4-thiadiazol-2-yl]cyclopentyl}methyl)-1,3,4-thiadiazol-2-yl]acetamide]", "IC50": 2.4},
      {"smiles": "CC(=O)Nc1nnc([C@H]2CC[C@@H](Cc3nnc(NC(=O)Cc4ccccc4)s3)C2)s1", "note": "(single isomer, unassigned) [Example 14]", "IC50": 3.1},
      {"smiles": "CC(=O)Nc1nnc(C2CCC(Cc3nnc(NC(=O)Cc4cnccn4)s3)C2)s1", "note": "(racemic) [Example 47, (rac)-N-[5-({(cis)-3-[5-(acetylamino)-1,3,4-thiadiazol-2-yl]cyclopentyl}methyl)-1,3,4-thiadiazol-2-yl]-2-(pyrazin-2-yl)acetamide]", "IC50": 512},
      {"smiles": "CC(C)(C)C(=O)Nc1nnc(CC2CCC(c3nnc(NC(=O)C(C)(C)C)s3)C2)s1", "note": "(racemic) [Example 27, (rac)-N-(5-{[(cis)-3-{5-[(2,2-dimethylpropanoyl)amino]-1,3,4-thiadiazol-2-yl}cyclopentyl]methyl}-1,3,4-thiadiazol-2-yl)-2,2-dimethylpropanamide]", "IC50": 242},
      {"smiles": "CC(=O)Nc1nnc([C@H]2C[C@H](Cc3ccc(NC(=O)Cc4ccccn4)nn3)C2)s1", "note": "(single isomer, unassigned) [Example 115, N-[6-({trans-3-[5-(acetylamino)-1,3,4-thiadiazol-2-yl]cyclobutyl}methyl)pyridazin-3-yl]-2-(pyridin-2-yl)acetamide]", "IC50": 2},
      {"smiles": "Nc1nnc(C[C@@H]2CC[C@H](c3nnc(N)s3)C2)s1", "note": "(single isomer, unassigned) [Example 40]", "IC50": 4580},
      {"smiles": "COCCC(=O)Nc1nnc([C@H]2CC[C@@H](Cc3ccc(NC(=O)Cc4ccccn4)nn3)C2)s1", "note": "(single isomer, unassigned) [Example 122, 3-methoxy-N-{5-[(cis)-3-({6-[(pyridin-2-ylacetyl)amino]pyridazin-3-yl}methyl)cyclopentyl]-1,3,4-thiadiazol-2-yl}propanamide]", "IC50": 0.4},
      {"smiles": "CC(C)(C)C(=O)Nc1nnc(C[C@H]2CC[C@@H](c3nnc(NC(=O)C(C)(C)C)s3)C2)s1", "note": "(single isomer, unassigned) [Example 28, N-(5-{[(cis)-3-{5-[(2,2-dimethylpropanoyl)amino]-1,3,4-thiadiazol-2-yl}cyclopentyl]methyl}-1,3,4-thiadiazol-2-yl)-2,2-dimethylpropanamide]", "IC50": 3020},
      {"smiles": "CC(C)C(=O)Nc1nnc(C2CC3(CC(c4nnc(NC(=O)Cc5ccn(C)n5)s4)C3)C2)s1", "note": "(racemic) [Example 136, 2-methyl-N-{5-[6-(5-{[(1-methyl-1H-pyrazol-3-yl)acetyl]amino}-1,3,4-thiadiazol-2-yl)spiro[3.3]hept-2-yl]-1,3,4-thiadiazol-2-yl}propanamide]", "IC50": 1.9},
      {"smiles": "Cn1ccc(CC(=O)Nc2nnc([C@@H]3CC[C@H](Cc4ccc(NC(=O)Cc5ccccn5)nn4)C3)s2)n1", "note": "(single isomer, unassigned) [Example 127, 2-(1-methyl-1H-pyrazol-3-yl)-N-{5-[(cis)-3-({6-[(pyridin-2-ylacetyl)amino]pyridazin-3-yl}methyl)cyclopentyl]-1,3,4-thiadiazol-2-yl}acetamide]", "IC50": 0.7},
      {"smiles": "O=C(Cc1ccccn1)Nc1nnc(C[C@H]2CC[C@@H](c3nnc(NC(=O)Cc4ccccn4)s3)C2)s1", "note": "(racemic) [Example 152, (rac)-2-(pyridin-2-yl)-N-(5-{[(cis)-3-{5-[(pyridin-2-ylacetyl)amino]-1,3,4-thiadiazol-2-yl}cyclopentyl]methyl}-1,3,4-thiadiazol-2-yl)acetamide]", "IC50": 2.8},
      {"smiles": "C[C@H](C(=O)Nc1nnc([C@@H]2CC[C@H](Cc3nnc(NC(=O)[C@H](C)c4cccnc4)s3)C2)s1)c1cccnc1", "note": "(single isomer, unassigned) [Example 31, 2-(pyridin-3-yl)-N-(5-{[(cis)-3-(5-{[2-(pyridin-3-yl)propanoyl]amino}-1,3,4-thiadiazol-2-yl)cyclopentyl]methyl}-1,3,4-thiadiazol-2-yl)propanamide]", "IC50": 639},
      {"smiles": "Nc1nnc(C[C@H]2CC[C@@H](c3nnc(N)s3)C2)s1", "note": "(single isomer, unassigned) [Example 41]", "IC50": "> 40400"},
      {"smiles": "C[C@H](C(=O)Nc1nnc([C@H]2CC[C@@H](Cc3nnc(NC(=O)[C@H](C)c4cccnc4)s3)C2)s1)c1cccnc1", "note": "(single isomer, unassigned) [Example 35, 2-(pyridin-3-yl)-N-(5-{[(cis)-3-(5-{[2-(pyridin-3-yl)propanoyl]amino}-1,3,4-thiadiazol-2-yl)cyclopentyl]methyl}-1,3,4-thiadiazol-2-yl)propanamide]", "IC50": 50.7},
      {"smiles": "C[C@@H](c1nnc(NC(=O)Cc2ccccn2)s1)[C@H]1C[C@@H](c2nnc(NC(=O)Cc3ccccn3)s2)C1", "note": "(single isomer, unassigned) [Example 103]", "IC50": 0.8},
      {"smiles": "Nc1nnc(CC2CC[C@H](c3nnc(NC(=O)Cc4ccccc4)s3)C2)s1", "note": "(single isomer, unassigned) [Example 64, N-(5-{(cis)-3-[(5-amino-1,3,4-thiadiazol-2-yl)methyl]cyclopentyl}-1,3,4-thiadiazol-2-yl)-2-phenylacetamide]", "IC50": 71.2},
      {"smiles": "CC(=O)Nc1nnc([C@@H]2CC[C@H](Cc3nnc(NC(=O)Cc4ccccn4)s3)C2)s1", "note": "(racemic) [Example 151, (rac)-N-[5-({(cis)-3-[5-(acetylamino)-1,3,4-thiadiazol-2-yl]cyclopentyl}methyl)-1,3,4-thiadiazol-2-yl]-2-(pyridin-2-yl)acetamide]", "IC50": 4.6},
      {"smiles": "O=C(Cc1ccccn1)Nc1ccc(C2CC3(C2)CC(c2ccc(NC(=O)Cc4ccccn4)nn2)C3)nn1", "note": "(racemic) [Example 25, N,N′-(spiro[3.3]heptane-2,6-diyldipyridazine-6,3-diyl)bis[2-(pyridin-2-yl)acetamide]]", "IC50": 1},
      {"smiles": "CC(C)C(=O)Nc1nnc(C2CC3(C2)CC(c2nnc(NC(=O)C(C)C)s2)C3)s1", "note": "(racemic) [Example 94, (rac)-N,N′-(spiro[3.3]heptane-2,6-diyldi-1,3,4-thiadiazole-5,2-diyl)bis(2-methylpropanamide)]", "IC50": 8.5},
      {"smiles": "Nc1nnc(CC2CC[C@@H](c3nnc(NC(=O)Cc4ccccc4)s3)C2)s1", "note": "(single isomer, unassigned) [Example 65, N-(5-{(cis)-3-[(5-amino-1,3,4-thiadiazol-2-yl)methyl]cyclopentyl}-1,3,4-thiadiazol-2-yl)-2-phenylacetamide]", "IC50": 1820},
      {"smiles": "CC(=O)Nc1nnc(C2CC[C@H](Cc3nnc(NC(=O)c4ccccc4)s3)C2)s1", "note": "(single isomer, unassigned) [Example 12, N-[5-({(cis)-3-[5-(acetylamino)-1,3,4-thiadiazol-2-yl]cyclopentyl}methyl)-1,3,4-thiadiazol-2-yl]benzamide]", "IC50": "> 50000"}
    ]}
  ]
}
